Patent US20090099204A1, “Amide derivative, insecticide containing the same and method for application thereof as insecticide” (Mitsui Chemicals, Inc., priority 2005, published 2009)

Key:
Type in all cases: in vivo
[1] = system: Common Cutworm (Spodoptera litura); assay: Insecticidal Test on Common Cutworm (Spodoptera litura); conditions: Comparative Example 1; same conditions as Test Example 1
Experimental: Insecticidal Test on Common Cutworm (Spodoptera litura)
A piece of cabbage leaf was immersed for 30 seconds in a liquid chemical prepared by diluting a test compound to a prescribed concentration. After air-drying, the piece was put into a 7-cm polyethylene cup and second-instar larvae of common cutworms were released thereinto. The polyethylene cups were set in an isothermal chamber thermostated at 25° C. From the release 6 days later, the dead and alive were counted. The test was carried out with two replications of 5 insects per a plot.

[2] = system: Western Flower Thrip (Franklinella occidentalis); assay: Insecticidal Test on Western Flower Thrip (Franklinella occidentalis); conditions: Comparative Example 1; same conditions as Test Example 3
[3] = system: Diamondback Moth (Plutella xylostella); assay: Insecticidal Test on Diamondback Moth (Plutella xylostella); conditions: Comparative Example 1; same conditions as Test Example 2
Experimental: Insecticidal Test on Diamondback Moth (Plutella xylostella)
A piece of cabbage leaf was immersed for 30 seconds in a liquid chemical prepared by diluting a test compound to a prescribed concentration. After air-drying, the piece was put into a 7-cm polyethylene cup and second-instar larvae of diamondback moths were released thereinto. The polyethylene cups were set in an isothermal chamber thermostated at 25° C. From the release, 6 days later, the dead and alive were counted. The test was carried out with two replications of 5 insects per a plot.

[4] = system: Onion Thrip (Thrips tabaci); conditions: Comparative Example 1; same conditions as Test Example 5
Experimental: Insecticidal Test on Onion Thrip (Thrips tabaci)
A chemical to the prescribed concentration was dispersed on onion seedlings, air-dried, and then both the seedlings and 5 adult insects of onion thrips were put into a glass test tube (diameter; 3 cm, height: 10 cm). The resulting material was lidded. 3 days thereafter, the number of surviving insects was counted and the mortality was calculated.

[5] = system: Melon Thrip (Thrips palmi); assay: Insecticidal Test on Melon Thrip (Thrips palmi); conditions: Comparative Example 1; same conditions as Test Example 4
Description: Insecticidal Test on Melon Thrip (Thrips palmi)
Into a plastic cup (diameter: 5 cm, height: 5 cm) was poured 1% agar gel, and the reverse side of a cucumber leaf cut with a diameter of 4.5 cm was placed upward to prepare leaf disc. A chemical to the prescribed concentration was dispersed thereon using a vertical sprayer. After air-drying, 5 adult melon thrips were released thereinto and the resulting material was lidded. 3 days thereafter, the number of surviving insects was counted and the mortality was calculated.

Measured: insecticidal activity

Cc1cc(C(F)(C(F)(F)F)C(F)(F)F)ccc1NC(=O)c1cccc(NC(=O)c2ccccc2I)c1 [Compound A, N-(4-heptafluoroisopropyl-2-methyl)phenyl 3-(2-iodobenzoylamino)benzamide]
could not be confirmed: all assays above

Cc1cc(C(F)(F)F)cc(C)c1NC(=O)c1cccc(NC(=O)c2ccccc2)c1 [Compound B, N-(2,6-dimethyl-4-trifluoromethyl)phenyl 3-(benzoylamino)benzamide]
could not be confirmed: all assays above
